What was measured:
Format in all cases: in vivo
Veronica persica = experiment: Test Example 4: herbicidal effect by application to foliage (diluvial soil, plastic box)
Outline: (§1)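 Read-out is a 0–5 visual grade of herbicidal ratio (5: ≥90%, almost withered; 0: ≤5%) taken three weeks after treatment. Compound was applied as a diluted emulsion to stem and leaf parts of 14-day greenhouse-grown plants (25° C. to 30° C.) at rates expressed as g/ha.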

Amaranthus retroflexus = experiment: as above
Outline: as §1

Setaria viridis = experiment: as above
Outline: as §1

Lolium multiflorum Lam. = experiment: as above
Outline: as §1

Avena fatua = experiment: as above
Outline: as §1

Stellaria media = experiment: as above
Outline: as §1

Alopecurus myosuroides = experiment: as above
Outline: as §1

Galium spurium = experiment: as above
Outline: as §1

Abutilon theophrasti = experiment: as above
Outline: as §1

Digitaria ciliaris = experiment: as above
Outline: as §1

Chenopodium album = experiment: as above
Outline: as §1

[1] = test system: Echinochloa crus-galli var. crus-galli; experiment: as above
Outline: as §1

Apera spica-venti. = experiment: as above
Outline: as §1

Leptochloa chinensis = experiment: Test Example 3: herbicidal effect by application to foliage (Wagner pot, water depth 0.1-0.5 cm); details: Nineteenth Table, application herbicide amount 320 g/ha; for D (herbicidal effect grade): application to foliage
Outline: (§2)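 Alluvial soil in 1/10000 are Wagner pots, sown and grown 14 days in a 25–30 °C greenhouse. An emulsifiable concentrate diluted in water to the set dose (g/ha) was sprayed on stems and leaves. Effect scored three weeks later on a 0–5 scale: 5 = ≥90% herbicidal ratio, 0 = ≤5%.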

Cyperus difformis = experiment: as above; details: Nineteenth Table, application herbicide amount 320 g/ha; for E (herbicidal effect grade): application to foliage
Outline: as §2

[2] = test system: Echinochloa crus-galli var. crus-galli; experiment: as above; details: Nineteenth Table, application herbicide amount 320 g/ha; for H (herbicidal effect grade): application to foliage
Outline: as §2

Triticum aestivum = experiment: Test Example 4: effect on crop by application to foliage (diluvial soil, plastic box)
Outline: as §1

Zea mays = experiment: as above
Outline: as §1

[3] = test system: directly sowed Oryza sativa; experiment: as above
Outline: as §1

[4] = test system: Beta vulgaris ssp. vulgaris; experiment: as above
Outline: as §1

Glycine max = experiment: as above
Outline: as §1

Brassica campestris L. = experiment: as above
Outline: as §1

[5] = test system: directly sowed Oryza sativa; experiment: Test Example 3: effect on crop by application to foliage (Wagner pot, water depth 0.1-0.5 cm); details: Nineteenth Table, application herbicide amount 320 g/ha; for b (effect on crop grade): application to foliage
Outline: as §2

[6] = Application herbicide amount 320 g/ha, foliage application
[7] = application to foliage, 320 g/ha
[8] = application to foliage, application herbicide amount 320 g/ha

## Cc1nnc(NC(=O)c2ccc(C(F)(F)F)n3c(SCC#N)nnc23)o1 [1-117]
Veronica persica; [6]
  R (Veronica persica) herbicidal effect grade: 3 (Herbicidal ratio of 40% or more and less than 70%)
Amaranthus retroflexus; [6]
  N (Amaranthus retroflexus) herbicidal effect grade: 3 (Herbicidal ratio of 40% or more and less than 70%)
Setaria viridis; [6]
  G (Setaria viridis) herbicidal effect grade: 1 (Herbicidal ratio of 5% or more and less than 20%)
Lolium multiflorum Lam.; [6]
  K (Lolium multiflorum Lam.) herbicidal effect grade: 0 (Herbicidal ratio of 5% or less (almost no effect))
Avena fatua; [6]
  I (Avena fatua) herbicidal effect grade: 0 (Herbicidal ratio of 5% or less (almost no effect))
Stellaria media; [6]
  P (Stellaria media) herbicidal effect grade: 3 (Herbicidal ratio of 40% or more and less than 70%)
Alopecurus myosuroides; [6]
  J (Alopecurus myosuroides) herbicidal effect grade: 0 (Herbicidal ratio of 5% or less (almost no effect))
Galium spurium; [6]
  Q (Galium spurium) herbicidal effect grade: 1 (Herbicidal ratio of 5% or more and less than 20%)
Abutilon theophrasti; [6]
  M (Abutilon theophrasti) herbicidal effect grade: 3 (Herbicidal ratio of 40% or more and less than 70%)
Digitaria ciliaris; [6]
  F (Digitaria ciliaris) herbicidal effect grade: 1 (Herbicidal ratio of 5% or more and less than 20%)
Chenopodium album; [6]
  O (Chenopodium album) herbicidal effect grade: 5 (Herbicidal ratio of 90% or more (almost completely withered))
[1]; [6]
  H (Echinochloa crus-galli var. crus-galli) herbicidal effect grade: 4 (Herbicidal ratio of 70% or more and less than 90%)
Apera spica-venti.; [6]
  L (Apera spica-venti.) herbicidal effect grade: 0 (Herbicidal ratio of 5% or less (almost no effect))
Leptochloa chinensis
  D (herbicidal effect grade): 4 (Herbicidal ratio of 70% or more and less than 90%)
Cyperus difformis
  E (herbicidal effect grade): 2 (Herbicidal ratio of 20% or more and less than 40%)
[2]
  H (herbicidal effect grade): 4 (Herbicidal ratio of 70% or more and less than 90%)
Triticum aestivum; [6]
  e (Triticum aestivum) effect on crop grade: 0 (Herbicidal ratio of 5% or less (almost no effect))
Zea mays; [6]
  c (Zea mays) effect on crop grade: 0 (Herbicidal ratio of 5% or less (almost no effect))
[3]; [6]
  b (directly sowed Oryza sativa) effect on crop grade: 0 (Herbicidal ratio of 5% or less (almost no effect))
[4]; [6]
  f (Beta vulgaris ssp. vulgaris) effect on crop grade: 3 (Herbicidal ratio of 40% or more and less than 70%)
Glycine max; [6]
  d (Glycine max) effect on crop grade: 3 (Herbicidal ratio of 40% or more and less than 70%)
Brassica campestris L.; [6]
  g (Brassica campestris L.) effect on crop grade: 1 (Herbicidal ratio of 5% or more and less than 20%)
[5]
  b (effect on crop grade): 0 (Herbicidal ratio of 5% or less (almost no effect))

## CCn1nc2c(C(=O)Nc3nnc(C)o3)ccc(C(F)(F)F)n2c1=O [6-003]
Veronica persica; [7]
  herbicidal effect, R (Veronica persica): 1 (Herbicidal ratio of 5% or more and less than 20%)
Amaranthus retroflexus; [7]
  herbicidal effect, N (Amaranthus retroflexus): 2 (Herbicidal ratio of 20% or more and less than 40%)
Setaria viridis; [7]
  herbicidal effect, G (Setaria viridis): 3 (Herbicidal ratio of 40% or more and less than 70%)
Lolium multiflorum Lam.; [7]
  herbicidal effect, K (Lolium multiflorum Lam.): 0 (Herbicidal ratio of 5% or less (almost no effect))
Avena fatua; [7]
  herbicidal effect, I (Avena fatua): 0 (Herbicidal ratio of 5% or less (almost no effect))
Stellaria media; [7]
  herbicidal effect, P (Stellaria media): 4 (Herbicidal ratio of 70% or more and less than 90%)
Alopecurus myosuroides; [7]
  herbicidal effect, J (Alopecurus myosuroides): 0 (Herbicidal ratio of 5% or less (almost no effect))
Galium spurium; [7]
  herbicidal effect, Q (Galium spurium): 1 (Herbicidal ratio of 5% or more and less than 20%)
Abutilon theophrasti; [7]
  herbicidal effect, M (Abutilon theophrasti): 4 (Herbicidal ratio of 70% or more and less than 90%)
Digitaria ciliaris; [7]
  herbicidal effect, F (Digitaria ciliaris): 4 (Herbicidal ratio of 70% or more and less than 90%)
Chenopodium album; [7]
  herbicidal effect, O (Chenopodium album): 3 (Herbicidal ratio of 40% or more and less than 70%)
[1]; [7]
  herbicidal effect, H (Echinochloa crus-galli var. crus-galli): 3 (Herbicidal ratio of 40% or more and less than 70%)
Apera spica-venti.; [7]
  herbicidal effect, L (Apera spica-venti.): 0 (Herbicidal ratio of 5% or less (almost no effect))
Leptochloa chinensis
  D (herbicidal effect grade): 5 (Herbicidal ratio of 90% or more (almost completely withered))
Cyperus difformis
  E (herbicidal effect grade): 0 (Herbicidal ratio of 5% or less (almost no effect))
[2]
  H (herbicidal effect grade): 1 (Herbicidal ratio of 5% or more and less than 20%)
Triticum aestivum; [7]
  effect on crop, e (Triticum aestivum): 0 (Herbicidal ratio of 5% or less (almost no effect))
Zea mays; [7]
  effect on crop, b (Zea mays): 0 (Herbicidal ratio of 5% or less (almost no effect))
[3]; [7]
  effect on crop, d (directly sowed Oryza sativa): 0 (Herbicidal ratio of 5% or less (almost no effect))
[4]; [7]
  effect on crop, f (Beta vulgaris ssp. vulgaris): 1 (Herbicidal ratio of 5% or more and less than 20%)
Glycine max; [7]
  effect on crop, c (Glycine max): 0 (Herbicidal ratio of 5% or less (almost no effect))
Brassica campestris L.; [7]
  effect on crop, g (Brassica campestris L.): 0 (Herbicidal ratio of 5% or less (almost no effect))
[5]
  b (effect on crop grade): 0 (Herbicidal ratio of 5% or less (almost no effect))

## Cc1nnc(NC(=O)c2ccc(C(F)(F)F)n3c(CS(=O)(=O)CC(F)(F)F)nnc23)o1 [1-039]
Veronica persica; [8]
  R (Veronica persica) herbicidal effect: 0 (Herbicidal ratio of 5% or less (almost no effect))
Amaranthus retroflexus; [8]
  N (Amaranthus retroflexus) herbicidal effect: 1 (Herbicidal ratio of 5% or more and less than 20%)
Setaria viridis; [8]
  G (Setaria viridis) herbicidal effect: 0 (Herbicidal ratio of 5% or less (almost no effect))
Lolium multiflorum Lam.; [8]
  K (Lolium multiflorum Lam.) herbicidal effect: 0 (Herbicidal ratio of 5% or less (almost no effect))
Avena fatua; [8]
  I (Avena fatua) herbicidal effect: 0 (Herbicidal ratio of 5% or less (almost no effect))
Stellaria media; [8]
  P (Stellaria media) herbicidal effect: 0 (Herbicidal ratio of 5% or less (almost no effect))
Alopecurus myosuroides; [8]
  J (Alopecurus myosuroides) herbicidal effect: 0 (Herbicidal ratio of 5% or less (almost no effect))
Galium spurium; [8]
  Q (Galium spurium) herbicidal effect: 0 (Herbicidal ratio of 5% or less (almost no effect))
Abutilon theophrasti; [8]
  M (Abutilon theophrasti) herbicidal effect: 0 (Herbicidal ratio of 5% or less (almost no effect))
Digitaria ciliaris; [8]
  F (Digitaria ciliaris) herbicidal effect: 2 (Herbicidal ratio of 20% or more and less than 40%)
Chenopodium album; [8]
  O (Chenopodium album) herbicidal effect: 4 (Herbicidal ratio of 70% or more and less than 90%)
[1]; [8]
  H (Echinochloa crus-galli var. crus-galli) herbicidal effect: 4 (Herbicidal ratio of 70% or more and less than 90%)
Apera spica-venti.; [8]
  L (Apera spica-venti.) herbicidal effect: 0 (Herbicidal ratio of 5% or less (almost no effect))
Leptochloa chinensis
  D (Leptochloa chinensis) herbicidal ratio grade: 3 (Herbicidal ratio of 40% or more and less than 70%)
Cyperus difformis
  E (Cyperus difformis) herbicidal ratio grade: 3 (Herbicidal ratio of 40% or more and less than 70%)
[2]
  H (Echinochloa crus-galli var. crus-galli) herbicidal ratio grade: 3 (Herbicidal ratio of 40% or more and less than 70%)
Triticum aestivum; [8]
  e (Triticum aestivum) effect on crop: 0 (Herbicidal ratio of 5% or less (almost no effect))
Zea mays; [8]
  b (Zea mays) effect on crop: 0 (Herbicidal ratio of 5% or less (almost no effect))
[3]; [8]
  d (directly sowed Oryza sativa) effect on crop: 0 (Herbicidal ratio of 5% or less (almost no effect))
[4]; [8]
  f (Beta vulgaris ssp. vulgaris) effect on crop: 2 (Herbicidal ratio of 20% or more and less than 40%)
Glycine max; [8]
  c (Glycine max) effect on crop: 0 (Herbicidal ratio of 5% or less (almost no effect))
Brassica campestris L.; [8]
  g (Brassica campestris L.) effect on crop: 0 (Herbicidal ratio of 5% or less (almost no effect))
[5]
  b (directly sowed Oryza sativa) effect on crop grade: 2 (Herbicidal ratio of 20% or more and less than 40%)

Reference: patent US9708314B2, “Heterocyclic amide compound” (NISSAN CHEMICAL INDUSTRIES, LTD., priority 2013, dated 2017)
